Experimental data reported in the RepoRT retention time repository.

Assay: A: acetonitrile + 0.1% formic acid + 10 mM ammonium formate; B: 5% water + 95% acetonitrile + 0.1% formic acid + 10 mM ammonium formate; gradient (min/%B) 0/10 2/10 22/100 27/100 27.1/10
Details: stereoisomer not certain

Row | LC retention time | SMILES
1 | 0.596 min | Cn1c(=O)c2[nH]cnc2n(C)c1=O [Theophylline]
2 | 8.44 min | Cc1ncc(C[n+]2csc(CCOP(=O)([O-])O)c2C)c(N)n1 [Thiamine monophosphate]
3 | 0.953 min | CSc1ccc2c(c1)N(CCC1CCCCN1C)c1ccccc1S2 (stereo not drawn) [Thioridazine]
4 | 1.04 min | Cc1cn(C2CC(O)C(CO)O2)c(=O)[nH]c1=O (stereo not drawn) [Thymidine]
5 | 0.793 min | Cc1c[nH]c(=O)[nH]c1=O [Thymine]
6 | 0.432 min | CCCCNC(=O)NS(=O)(=O)c1ccc(C)cc1 [Tolbutamide]
7 | 0.772 min | CN(C)CCOc1ccc(C(=C(CCCl)c2ccccc2)c2ccccc2)cc1 [Toremifene]
8 | 0.561 min | O=C(O)C=CCCCCCCCCC(=O)O [Traumatic acid]
9 | 0.499 min | CC12C=CC(=O)C=C1CCC1C3CC(O)C(O)(C(=O)CO)C3(C)CC(O)C12F (stereo not drawn) [Triamcinolone]
10 | 2.5 min | Nc1nc(N)c2nc(-c3ccccc3)c(N)nc2n1 [Triamterene]
11 | 0.641 min | CCN(Cc1ccncc1)C(=O)C(CO)c1ccccc1 (stereo not drawn) [Tropicamide]
12 | 5.96 min | NC(=O)NC(CC(=O)O)C(=O)O (stereo not drawn) [Ureidosuccinic acid]
13 | 8.14 min | O=c1ccn(C2OC(COP(=O)(O)OP(=O)(O)O)C(O)C2O)c(=O)[nH]1 (stereo not drawn) [Uridine 5'-diphosphate]
14 | 6.86 min | O=c1ccn(C2OC(COP(=O)(O)O)C(O)C2O)c(=O)[nH]1 (stereo not drawn) [Uridine-5'-phosphoric acid]
15 | 1.89 min | O=C(O)C=Cc1cnc[nH]1 [Urocanic acid]
16 | 0.733 min | CCCCC(=O)N(Cc1ccc(-c2ccccc2-c2nn[nH]n2)cc1)C(C(=O)O)C(C)C (stereo not drawn) [Valsartan]
17 | 8.2 min | CNC(CC(C)C)C(=O)NC1C(=O)NC(CC(N)=O)C(=O)NC2C(=O)NC3C(=O)NC(C(=O)NC(C(=O)O)c4cc(O)cc(O)c4-c4cc3ccc4O)C(O)c3ccc(c(Cl)c3)Oc3cc2cc(c3OC2OC(CO)C(O)C(O)C2OC2CC(C)(N)C(O)C(C)O2)Oc2ccc(cc2Cl)C1O (stereo not drawn) [Vancomycin]
18 | 0.435 min | COc1cc(C=O)ccc1O [Vanillin]

Row | LC retention time | SMILES
19 | 1.08 min | CCCc1nc(C)c2c(=O)[nH]c(-c3cc(S(=O)(=O)N4CCN(CC)CC4)ccc3OCC)nn12 [Vardenafil]
20 | 0.407 min | C=C1CCC(O)CC1=CC=C1CCCC2(C)C1CCC2C(C)CCCC(C)C (stereo not drawn) [Vitamin D3]
21 | 0.412 min | CC(=O)Oc1cc(C)c(OC(C)=O)c2ccccc12 [Vitamin K4]
22 | 2.92 min | O=c1[nH]c(=O)c2[nH]cnc2[nH]1 [Xanthine]
23 | 7.42 min | O=c1[nH]c(=O)c2ncn(C3OC(COP(=O)(O)O)C(O)C3O)c2[nH]1 (stereo not drawn) [Xanthosine 5'-monophosphate]
24 | 5.1 min | O=c1[nH]c(=O)c2ncn(C3OC(CO)C(O)C3O)c2[nH]1 (stereo not drawn) [Xanthosine]
25 | 5.38 min | OCC(O)C(O)C(O)CO (stereo not drawn) [Xylitol]
26 | 2.3 min | CC(N)c1ccccc1 (stereo not drawn) [alpha-Methylbenzylamine]
27 | 6.56 min | O=P(O)(O)OC(CO)CO [beta-Glycerophosphoric acid]
28 | 6.75 min | OC[C@H]1O[C@@H](O[C@H]2[C@H](O)[C@@H](O)[C@H](O)O[C@@H]2CO)[C@H](O)[C@@H](O)[C@H]1O [beta-Lactose]
29 | 0.452 min | C=C1CCC2CC1C2(C)C (stereo not drawn) [beta-Pinene]
30 | 5.83 min | NCCCC(=O)O [gamma-Aminobutyric acid]
31 | 3.46 min | O=C(O)CNC(=O)c1cccc(O)c1 [m-Hydroxyhippuric Acid]
32 | 0.555 min | Nc1ccc(C(=O)O)cc1 [p-Aminobenzoic acid]
33 | 7.21 min | C[N+](C)(C)CCOP(=O)([O-])OCC(O)CO (stereo not drawn) [sn-glycero-3-Phosphocholine]
34 | 5.56 min | O=C(O)C/C=C/CC(=O)O [trans-2-Butene-1,4-dicarboxylic Acid]
35 | 0.485 min | O=C(O)/C=C/c1ccccc1 [trans-Cinnamic acid]

Row | SMILES | LC retention time
36 | NCCc1c[nH]c2ccccc12 [Tryptamine] | 2.25 min
37 | NCCc1ccc(O)cc1 [Tyramine] | 3.19 min
38 | O=C/C=C/c1ccccc1 [trans-Cinnamaldehyde] | 0.43 min
